Columns and labels:
Myzus persicae = Myzus persicae spray test (MYZUPE), Chinese cabbage leaf-disks; type: in vivo
Experimental: (§1) For all examples efficiencies of the compositions comprising at least one BCA and at least one specific insecticide has been determined by the “Colby-formula”: The expected efficacy of a given combination of two compounds is calculated as follows (see Colby, S. R., “Calculating Synergistic and antagonistic Responses of Herbicide Combinations”, Weeds 15, pp. 20-22, 1967):
(§2) If • X is the efficacy expressed in % mortality of the untreated control for test compound A at a concentration of m ppm respectively m g/ha, • Y is the efficacy expressed in % mortality of the untreated control for test compound B at a concentration of n ppm respectively n g/ha, • E is the efficacy expressed in % mortality of the untreated control using the mixture of A and B at m and n ppm respectively m and n g/ha, • then is E=X+Y−(X×Y/100)
(§3) If the observed insecticidal efficacy of the combination is higher than the one calculated as “E”, then the combination of the two compounds is more than additive, i.e., there is a synergistic effect.
(§4) To produce a suitable preparation of active compound, 1 part by weight of active compound is mixed with the stated amount of solvent and emulsifier, and the concentrate is diluted with emulsifier-containing water to the desired concentration. To produce a suitable preparation of a spore suspension the spores are diluted with emulsifier-containing water to the desired concentration. Chinese cabbage (Brassica pekinensis) leaf-disks infected with all instars of the green peach aphid (Myzus persicae), are sprayed with a preparation of the active ingredient of the desired concentration.
After the specified period of time, mortality in % is determined. 100% means all aphids have been killed; 0% means none of the aphids have been killed. The mortality values determined thus are recalculated using the Colby-formula (see above).

Tetranychus urticae = Tetranychus urticae spray test, OP-resistant, French beans; type: in vivo
Experimental: as §1, §2, §3
as §4, with “French beans (Phaseolus vulgaris) which are heavily infested” for “Chinese cabbage (Brassica pekinensis) leaf-disks infected”, “stages” for “instars”, “two spotted spidermite (Tetranychus urticae),” for “green peach aphid (Myzus persicae),”
After the specified period of time, mortality in % is determined. 100% means all spider mites have been killed and 0% means none of the spider mites have been killed. The mortality values determined thus are recalculated using the Colby-formula (see above).

| SMILES | mortality at 0.8 g/ha (Myzus persicae; Myzus persicae, 144 h, 0.8 g/ha, after 6 d, read-out: Efficacy in % after 6d (mortality)) | mortality at 4 g/ha (Myzus persicae; Myzus persicae, 144 h, 4 g/ha, after 6 d, read-out: Efficacy in % after 6d (mortality)) | mortality at 20 g/ha (Tetranychus urticae; Tetranychus urticae, 48 h, 20 g ai/ha, after 2 d, read-out: Efficacy in % after 2d (mortality)) | mortality at 0.8 g/ha (Tetranychus urticae; Tetranychus urticae, 144 h, 0.8 g ai/ha, after 6 d, read-out: Efficacy in % after 6d (mortality)) | Efficacy in % after 6d (mortality) (Myzus persicae; 20 g/ha) | Efficacy in % after 6d (mortality) (Tetranychus urticae; 0.8 g ai/ha, after 6 d) | Efficacy in % after 2d (mortality) (Tetranychus urticae; 4 g ai/ha, after 2 d) |
| --- | --- | --- | --- | --- | --- | --- | --- |
| CCOC(=O)OC1=C(c2cc(C)ccc2C)C(=O)N[C@]12CC[C@@H](OC)CC2 [Spirotetramate (1223), Spirotetramat] | 0% | 70% | 0% | 0% | – | – | – |
| Cc1cc(C)c(C2=C(OC(=O)CC(C)(C)C)C3(CCCC3)OC2=O)c(C)c1 [Spiromesifen (1222), Spiromesifen] | – | – | – | – | 70% | 0% | 0% |

— US9737078B2, “Compositions comprising a biological control agent and an insecticide” (priority 2012, dated 2017)
